Data from ChEMBL document CHEMBL1147293, “Immunosuppressive compounds from a deep water marine sponge, Agelas flabelliformis” (J Nat Prod, 1989).

How the values were obtained:
Splenocyte [1] = assay: Immunosuppressive activity against concanavalin A-activated mouse splenocytes assessed as [3H]thymidine incorporation at 500 ug/ml after 72 hrs by liquid scintillation counting; type: functional
[2] = Cytotoxicity against mouse splenocytes assessed as cell viability at 0.5 ug/ml after 88 hrs by MTT assay; type: cell-based, Splenocyte; details: read-out: Activity
[3] = Cytotoxicity against mouse splenocytes assessed as cell viability at 15.6 ug/ml after 88 hrs by MTT assay; type: cell-based, Splenocyte; details: read-out: Activity
Splenocyte [4] = assay: Immunosuppressive activity against mouse splenocytes assessed as [3H]thymidine incorporation at 7.8 ug/ml after 88 hrs by liquid scintillation counting; type: functional
Splenocyte [5] = assay: Immunosuppressive activity against concanavalin A-activated mouse splenocytes assessed as [3H]thymidine incorporation at 3.9 ug/ml after 72 hrs by liquid scintillation counting; type: functional
Splenocyte [6] = assay: Immunosuppressive activity against mouse splenocytes assessed as [3H]thymidine incorporation at 1.0 ug/ml after 88 hrs by liquid scintillation counting; type: functional
Splenocyte [7] = assay: Immunosuppressive activity against concanavalin A-activated mouse splenocytes assessed as [3H]thymidine incorporation at 250 ug/ml after 72 hrs by liquid scintillation counting; type: functional
Splenocyte [8] = assay: Immunosuppressive activity against mouse splenocytes assessed as [3H]thymidine incorporation at 15.6 ug/ml after 88 hrs by liquid scintillation counting; type: functional
Splenocyte [9] = assay: Immunosuppressive activity against concanavalin A-activated mouse splenocytes assessed as [3H]thymidine incorporation at 62.5 ug/ml after 72 hrs by liquid scintillation counting; type: functional
[10] = Cytotoxicity against mouse splenocytes assessed as cell viability at 31.3 ug/ml after 88 hrs by MTT assay; type: cell-based, Splenocyte; details: read-out: Activity
[11] = Cytotoxicity against mouse splenocytes assessed as cell viability at 7.8 ug/ml after 88 hrs by MTT assay; type: cell-based, Splenocyte; details: read-out: Activity
Splenocyte [12] = assay: Immunosuppressive activity against mouse splenocytes assessed as [3H]thymidine incorporation at 31.3 ug/ml after 88 hrs by liquid scintillation counting; type: functional
[13] = Cytotoxicity against mouse splenocytes assessed as cell viability at 250 ug/ml after 88 hrs by MTT assay; type: cell-based, Splenocyte; details: read-out: Activity
Splenocyte [14] = assay: Immunosuppressive activity against concanavalin A-activated mouse splenocytes assessed as [3H]thymidine incorporation at 0.3 ug/ml after 72 hrs by liquid scintillation counting; type: functional
Splenocyte [15] = assay: Immunosuppressive activity against concanavalin A-activated mouse splenocytes assessed as [3H]thymidine incorporation at 1.0 ug/ml after 72 hrs by liquid scintillation counting; type: functional
[16] = Cytotoxicity against mouse splenocytes assessed as cell viability at 0.3 ug/ml after 88 hrs by MTT assay; type: cell-based, Splenocyte; details: read-out: Activity
[17] = Cytotoxicity against mouse splenocytes assessed as cell viability at 62.5 ug/ml after 88 hrs by MTT assay; type: cell-based, Splenocyte; details: read-out: Activity
Splenocyte [18] = assay: Immunosuppressive activity against mouse splenocytes assessed as [3H]thymidine incorporation at 62.5 ug/ml after 88 hrs by liquid scintillation counting; type: functional
Splenocyte [19] = assay: Immunosuppressive activity against concanavalin A-activated mouse splenocytes assessed as [3H]thymidine incorporation at 15.6 ug/ml after 72 hrs by liquid scintillation counting; type: functional
[20] = Cytotoxicity against mouse splenocytes assessed as cell viability at 3.9 ug/ml after 88 hrs by MTT assay; type: cell-based, Splenocyte; details: read-out: Activity
Splenocyte [21] = assay: Immunosuppressive activity against mouse splenocytes assessed as [3H]thymidine incorporation at 125 ug/ml after 88 hrs by liquid scintillation counting; type: functional
Splenocyte [22] = assay: Immunosuppressive activity against concanavalin A-activated mouse splenocytes assessed as [3H]thymidine incorporation at 31.3 ug/ml after 72 hrs by liquid scintillation counting; type: functional
[23] = Cytotoxicity against mouse splenocytes assessed as cell viability at 125 ug/ml after 88 hrs by MTT assay; type: cell-based, Splenocyte; details: read-out: Activity
Splenocyte [24] = assay: Immunosuppressive activity against mouse splenocytes assessed as [3H]thymidine incorporation at 250 ug/ml after 88 hrs by liquid scintillation counting; type: functional
[25] = Cytotoxicity against mouse splenocytes assessed as cell viability at 500 ug/ml after 88 hrs by MTT assay; type: cell-based, Splenocyte; details: read-out: Activity
Splenocyte [26] = assay: Immunosuppressive activity against mouse splenocytes assessed as [3H]thymidine incorporation at 3.9 ug/ml after 88 hrs by liquid scintillation counting; type: functional
Splenocyte [27] = assay: Immunosuppressive activity against concanavalin A-activated mouse splenocytes assessed as [3H]thymidine incorporation at 7.8 ug/ml after 72 hrs by liquid scintillation counting; type: functional
Splenocyte [28] = assay: Immunosuppressive activity against concanavalin A-activated mouse splenocytes assessed as [3H]thymidine incorporation at 2.0 ug/ml after 72 hrs by liquid scintillation counting; type: functional
[29] = Cytotoxicity against mouse splenocytes assessed as cell viability at 1.0 ug/ml after 88 hrs by MTT assay; type: cell-based, Splenocyte; details: read-out: Activity
[30] = Cytotoxicity against mouse splenocytes assessed as cell viability at 2.0 ug/ml after 88 hrs by MTT assay; type: cell-based, Splenocyte; details: read-out: Activity
Splenocyte [31] = assay: Immunosuppressive activity against mouse splenocytes assessed as [3H]thymidine incorporation at 2.0 ug/ml after 88 hrs by liquid scintillation counting; type: functional
Splenocyte [32] = assay: Immunosuppressive activity against mouse splenocytes assessed as [3H]thymidine incorporation at 0.5 ug/ml after 88 hrs by liquid scintillation counting; type: functional
Splenocyte [33] = assay: Immunosuppressive activity against concanavalin A-activated mouse splenocytes assessed as [3H]thymidine incorporation at 0.5 ug/ml after 72 hrs by liquid scintillation counting; type: functional
Splenocyte [34] = assay: Immunosuppressive activity against concanavalin A-activated mouse splenocytes assessed as [3H]thymidine incorporation at 125 ug/ml after 72 hrs by liquid scintillation counting; type: functional
Splenocyte [35] = assay: Immunosuppressive activity against mouse splenocytes assessed as [3H]thymidine incorporation at 500 ug/ml after 88 hrs by liquid scintillation counting; type: functional
[36] = Cytotoxicity against mouse splenocytes assessed as cell viability at 0.25 ug/ml after 88 hrs by MTT assay; type: cell-based, Splenocyte; details: read-out: Activity
Splenocyte [37] = assay: Immunosuppressive activity against mouse splenocytes assessed as [3H]thymidine incorporation at 0.25 ug/ml after 88 hrs by liquid scintillation counting; type: functional

O=C(O)c1cc(Br)c(Br)[nH]1 gave an Activity (Splenocyte [1]) of 83%, a viability at 88 h, 0.5 ug/ml [2] of 113% and a viability at 88 h, 15.6 ug/ml [3] of 66%. For the same compound, the Activity (Splenocyte [4]) was 40%, the Activity (Splenocyte [5]) was 70% and the Activity (Splenocyte [6]) was 13%. It also gave an Activity (Splenocyte [7]) of 99%, an Activity (Splenocyte [8]) of 100% and an Activity (Splenocyte [9]) of 83%. The viability at 88 h, 31.3 ug/ml [10] was 27%, the viability at 88 h, 7.8 ug/ml [11] was 99% and the Activity (Splenocyte [12]) was 100%. It also gave a viability at 88 h, 250 ug/ml [13] of 0%, an Activity (Splenocyte [14]) of 50% and an Activity (Splenocyte [15]) of 43%. For the same compound, the viability at 88 h, 0.3 ug/ml [16] was 100%, the viability at 88 h, 62.5 ug/ml [17] was 27% and the Activity (Splenocyte [18]) was 100%. It also gave an Activity (Splenocyte [19]) of 84%, a viability at 88 h, 3.9 ug/ml [20] of 80% and an Activity (Splenocyte [21]) of 100%. It also gave an Activity (Splenocyte [22]) of 83%, a viability at 88 h, 125 ug/ml [23] of 12% and an Activity (Splenocyte [24]) of 100%. The viability at 88 h, 500 ug/ml [25] was 10%, the Activity (Splenocyte [26]) was 59% and the Activity (Splenocyte [27]) was 64%. For the same compound, the Activity (Splenocyte [28]) was 29%, the viability at 88 h, 1 ug/ml [29] was 95% and the viability at 88 h, 2 ug/ml [30] was 99%. The Activity (Splenocyte [31]) was 31%, the Activity (Splenocyte [32]) was 0% and the Activity (Splenocyte [33]) was 39%. The Activity (Splenocyte [34]) was 83% and the Activity (Splenocyte [35]) was 100%.

With CC(C)CCC[C@@H](C)[C@H]1CC[C@H]2C3=C(CC[C@]12C)[C@@]1(C)CC[C@H](O)[C@@H](C)[C@@H]1CC3 the viability at 88 h, 0.25 ug/ml [36] was 104%, the viability at 88 h, 0.5 ug/ml [2] was 118% and the viability at 88 h, 15.6 ug/ml [3] was 92%. The Activity (Splenocyte [4]) was 100%, the Activity (Splenocyte [6]) was 81% and the Activity (Splenocyte [8]) was 100%. The viability at 88 h, 31.3 ug/ml [10] was 85%, the Activity (Splenocyte [37]) was 0% and the viability at 88 h, 7.8 ug/ml [11] was 80%. It also gave an Activity (Splenocyte [12]) of 100%, a viability at 88 h, 250 ug/ml [13] of 10% and a viability at 88 h, 62.5 ug/ml [17] of 72%. The Activity (Splenocyte [18]) was 100%, the viability at 88 h, 3.9 ug/ml [20] was 99% and the Activity (Splenocyte [21]) was 100%. For the same compound, the viability at 88 h, 125 ug/ml [23] was 28%, the Activity (Splenocyte [24]) was 100% and the viability at 88 h, 500 ug/ml [25] was 6%. The Activity (Splenocyte [26]) was 100%, the viability at 88 h, 1 ug/ml [29] was 97% and the viability at 88 h, 2 ug/ml [30] was 77%. For the same compound, the Activity (Splenocyte [31]) was 100%, the Activity (Splenocyte [32]) was 46% and the Activity (Splenocyte [35]) was 100%.
